Measured values as given in US12291502B2, “Topoisomerase II-alpha inhibitors and methods of treating cancer using the same” (The Regents of the University of Colorado, priority 2019, dated 2025).

Assay: LCMS quantitation of compound in harvested tumors
Format: in vivo, athymic nude mouse
Conditions: i.p. 50 mg/kg, 5× per week over 28 days
Protocol: Mass spectrometry analysis and Sample preparation. Tumor tissue was isolated, flash frozen in liquid nitrogen, and stored at −80° C. until analysis. Prior to LC-MS analysis, samples were milled in liquid nitrogen and weighed. Tissue was then placed in tubes containing ˜50-75 μL of glass beads (NextAdvance SKU GB10), resuspended to 15 mg/ml in methanol:acetonitrile:water (5:3:2, v:v:v) and processed using a Bullet Blender® (Next Advance, Troy, NY, USA) for 5 minutes at level 4 at 4° C. Suspensions were then vortexed continuously for 30 min at 4° C. Insoluble material was removed by centrifugation at 10,000 g for 10 min at 4° C. and supernatants were isolated for metabolomics analysis by UHPLC-MS. Standard curves were prepared by serial dilution of the purified AA-29-141 compound into a pool of vehicle-treated tumor extract.
UHPLC-MS analysis for quantification of 42 in tumor tissue. Analyses were performed as previously published. Briefly, the analytical platform employs a Vanquish UHPLC system (Thermo Fisher Scientific, San Jose, CA, USA) coupled online to a Q Exactive mass spectrometer (Thermo Fisher Scientific, San Jose, CA, USA). […]

Compound: O=C(CCN1CCOCC1)Nc1ccc2c(-c3cc(F)ccc3O)ccnc2c1O [Analog 42]
- quantity of compound in tumors (LCMS/HRMS): significant HRMS quantity
